{"source": "patent US7115657B2", "about": "“Bifunctional agents possessing antioxidant and antiarrhythmic activity” (Uni-Pharma Kleon Tsetis Pharmaceutical Laboratories S.A., priority 2000, dated 2006)", "key": {"[1]": {"system": "microsomal lipid peroxidation", "assay": "in vitro lipid peroxidation, heat-inactivated hepatic microsomal fraction, Fe2+/ascorbate, TBA reactive material", "format": "biochemical, Fischer rats", "method": "The antioxidant activity of the new compounds was initially evaluated as set forth below. in vitro lipid peroxidation (Bationi J. P., Fontecave M., Jaouen M., Mansuy D. “Vitamin E derivatives as new potent inhibitors of microsomal lipid peroxidation” Biochem. Biophys. Res. Com. 1991, 174, 1103)\nFor these experiments, heat-inactivated hepatic microsomal fraction from untreated Fischer rats (200–220 g), corresponding to 0.125 g liver/ml final volume, was used. The incubation mixture contained the microsomal fraction, ascorbic acid (0.2 mM), in Tris buffer (50 mM, pH 7.4) and various concentrations (5 μM–1 mM) of the examined compounds dissolved in DMSO. The lipid peroxidation reaction was initiated with the addition of a freshly prepared FeSO4 solution (10 μM) and aliquots were taken at various time intervals for 45 min. Lipid peroxidation was estimated spectroscopically (535 nm vs. 600 nm) as 2-thiobarbitouric acid (TBA) reactive material. Each experiment was performed at least in triplicate.\nThe effect of various concentrations of representative compounds of the present invention on lipid peroxidation is shown in Table 1. […] However, there are quantitative differences that appear to be connected with the position of the amide substituent and the length of the side chain."}, "[2]": {"system": "isolated heart preparations", "assay": "antiarrhythmic activity on isolated heart preparations, Krebs perfused Langerdorff model of ischemia and reperfusion", "parameters": "species or system Male Wistar rats; unit not given here", "details": "drug present during last 5 min of ischemia and during reperfusion, control (no drug) 12 ± 4", "method": "The evaluation of the antiarrhythmic activity of the compounds set forth above was carried out on isolated heart preparations using the Krebs perfused Langerdorff model (Heisier B. E., Ferrier G. R. “Proarrhythmic actions of flecainide in an isolated tissue model of ischemia and reperfusion” J. Pharmacol. Exp. Ther. 1996, 279, 317). Male Wistar rats, 250–300 g, were anesthetized with pentobarbitone (15 mg/rat=5 mg/100 g body weight) and heparinized (1000 IU)\nHearts were excised and washed in ice cold modified Krebs-Henseleit (KHB) buffer of the following composition in Mm: NaCl 118, KCl 4.7, NaHCO3 25, KH2PO4 1.2, MgSO4 1.4, CaCl2 2.5, Glucose 11. Hearts were mounted on a Langerdorff apparatus, perfused at a pressure 100 mmHg, at 37° C., with KHB (9 ml/min) for 30–40 min and then the “ischemic” KHB solution was applied for 15 min (this solution is a KH buffer in which the glucose is substituted by Tris HCl. The hearts were then perfused with normal KHB for 30 min. Drugs were present during the last 5 min of ischemia and during reperfusion at the final concentration of 30 or 100 μM.\nElectrocardiograms were recorded during equilibration, ischemia and reperfusion.\nThe most important arrhythmias seem to occur during early reperfusion (Li G-R., Ferrier G. R. “Effects of lidocaine on reperfusion arrhythmias and electrophysiological properties in an isolated ventricular muscle model of ischemia and reperfusion” J. Pharmacol. Exp. Ther. 1991, 257, 997)."}}, "data": [{"molecule": "CCCCCCC1(C(=O)NCCN(CC)CC)CCc2c(C)c(O)c(C)c(C)c2O1", "note": "(stereo not shown) [b, N-(3,4-dihydro-2-hexyl-6-hydroxy-5,7,8-trimethyl-2H-1-benzopyran-2-carbonyl)-N′,N′-diethyl Ethylenediamine]", "values": [{"measurement": "% Inhibition", "setting": "[1]; compound concentration 10 μM", "value": 7.7, "unit": "%"}, {"measurement": "% Inhibition", "setting": "[1]; compound concentration 50 μM", "value": 91, "unit": "%"}]}, {"molecule": "CCN(CC)CCNC(=O)c1c(O)c(C)c(C)c2c1CCC(C)(C)O2", "note": "[d, N-(3,4-dihydro-6-hydroxy-2,2,7,8-tetramethyl-2H-1-benzopyran-5-carbonyl)-N′,N′-diethyl Ethylenediamine]", "values": [{"measurement": "% Inhibition", "setting": "[1]; compound concentration 10 μM", "value": 38.4, "unit": "%"}, {"measurement": "% Inhibition", "setting": "[1]; compound concentration 50 μM", "value": 98.1, "unit": "%"}]}, {"molecule": "Vitamin E [reference compound]", "values": [{"measurement": "% Inhibition", "setting": "[1]; compound concentration 10 μM", "value": 21, "unit": "%"}]}, {"molecule": "Cc1c(C)c2c(c(C)c1O)CCC(C)(C(=O)O)O2", "note": "(stereo not shown) [Trolox, reference compound]", "values": [{"measurement": "% Inhibition", "setting": "[1]; compound concentration 10 μM", "value": 49, "unit": "%"}]}, {"molecule": "CCCCCCC1(C)CCc2c(NC(=O)CN(CC)CC)c(O)c(C)c(C)c2O1", "note": "(stereo not shown) [h, N-(3,4-dihydro-2-hexyl-6-hydroxy-2,7,8-trimethyl-2H-1-benzopyran-5-yl)-(diethylamino)acetamide]", "values": [{"measurement": "% Inhibition", "setting": "[1]; compound concentration 5 μM", "value": 17.4, "unit": "%"}, {"measurement": "% Inhibition", "setting": "[1]; compound concentration 10 μM", "value": 100, "unit": "%"}, {"measurement": "Incidence of arrhythmias during the reperfusion period", "setting": "[2]; 30 μM", "value": "6 ± 3"}, {"measurement": "Incidence of arrhythmias during the reperfusion period", "setting": "[2]; 100 μM", "value": "6 ± 2.5"}]}, {"molecule": "CCCCCCC1(C)CCc2c(c(C)c(C)c(O)c2C(=O)NCCN(CC)CC)O1", "note": "(stereo not shown) [e, N-(3,4-dihydro-2-hexyl-6-hydroxy-2,7,8-trimethyl-2H-1-benzopyran-5-carbonyl)-N′,N′-diethyl Ethylenediamine]", "values": [{"measurement": "% Inhibition", "setting": "[1]; compound concentration 50 μM", "value": 87.4, "unit": "%"}]}, {"molecule": "CCN(CC)CCNC(=O)C1(C)CCc2c(C)c(O)c(C)c(C)c2O1", "note": "(stereo not shown) [Compound a, N-(3,4-dihydro-6-hydroxy-2,5,7,8-tetramethyl-2H-1-benzopyran-2-carbonyl)-N′,N′-diethyl Ethylenediamine]", "values": [{"measurement": "% Inhibition", "setting": "[1]; compound concentration 10 μM", "value": 96.3, "unit": "%"}, {"measurement": "Incidence of arrhythmias during the reperfusion period", "setting": "[2]; 30 μM", "value": "7 ± 3.5"}, {"measurement": "Incidence of arrhythmias during the reperfusion period", "setting": "[2]; 100 μM", "value": "5 ± 2"}]}, {"molecule": "CCCCCCCCCCCCC1(C(=O)NCCN(CC)CC)CCc2c(C)c(O)c(C)c(C)c2O1", "note": "(stereo not shown) [c, N-(3,4-dihydro-2-dodecyl-6-hydroxy-5,7,8-trimethyl-2H-1-benzopyran-2-carbonyl)-N′,N′-diethyl Ethylenediamine]", "values": [{"measurement": "% Inhibition", "setting": "[1]; compound concentration 200 μM", "value": 0, "unit": "%"}, {"measurement": "% Inhibition", "setting": "[1]; compound concentration 400 μM", "value": 48.6, "unit": "%"}, {"measurement": "% Inhibition", "setting": "[1]; compound concentration 500 μM", "value": 93.8, "unit": "%"}]}, {"molecule": "CCCCCCCCCCCCC1(C)CCc2c(c(C)c(C)c(O)c2C(=O)NCCN(CC)CC)O1", "note": "(stereo not shown) [f, N-(3,4-dihydro-2-dodecyl-6-hydroxy-2,7,8-trimethyl-2H-1-benzopyran-5-carbonyl)-N′,N′-diethyl Ethylenediamine]", "values": [{"measurement": "% Inhibition", "setting": "[1]; compound concentration 50 μM", "value": 0, "unit": "%"}, {"measurement": "% Inhibition", "setting": "[1]; compound concentration 1000 μM", "value": 100, "unit": "%"}]}, {"molecule": "CCCCCCC1(C)CC(NC(=O)CN(CC)CC)c2c(C)c(O)c(C)c(C)c2O1", "note": "(stereo not shown) [j, N-(3,4-dihydro-2-hexyl-6-hydroxy-2,5,7,8-tetramethyl-2H-1-benzopyran-4-yl)-(diethylamino)acetamide]", "values": [{"measurement": "% Inhibition", "setting": "[1]; compound concentration 50 μM", "value": 96.1, "unit": "%"}]}, {"molecule": "CCN(CC)CC(=O)Nc1c(O)c(C)c(C)c2c1CCC(C)(C)O2", "note": "[g, N-(3,4-dihydro-6-hydroxy-2,2,7,8-tetramethyl-2H-1-benzopyran-5-yl)-(diethylamino)acetamide]", "values": [{"measurement": "% Inhibition", "setting": "[1]; compound concentration 5 μM", "value": 72.4, "unit": "%"}, {"measurement": "% Inhibition", "setting": "[1]; compound concentration 10 μM", "value": 100, "unit": "%"}, {"measurement": "Incidence of arrhythmias during the reperfusion period", "setting": "[2]; 30 μM", "value": "8 ± 2.1"}, {"measurement": "Incidence of arrhythmias during the reperfusion period", "setting": "[2]; 100 μM", "value": "7 ± 2"}]}, {"molecule": "CCN(CC)CC(=O)NC1CC(C)(C)Oc2c(C)c(C)c(O)c(C)c21", "note": "(stereo not shown) [i, N-(3,4-dihydro-6-hydroxy-2,2,5,7,8-pentamethyl-2H-1-benzopyran-4-yl)-(diethylamino)acetamide]", "values": [{"measurement": "% Inhibition", "setting": "[1]; compound concentration 50 μM", "value": 98.6, "unit": "%"}]}]}
